Data from the supplement of paper PMC10011410.
± gives the standard deviation of the averaged measurements.

What was measured:
U-2 OS [1] = test: intracellular GSH:GSSG ratio (calculated); higher = more reduced glutathione pool; conditions: 24 h
Experimental: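 Intracellular glutathione in U-2 OS cells after 24 h compound treatment at 5, 10 and 20 uM (some at 40 and 80 uM). Total glutathione and GSSG were measured with the GSH/GSSG-Glo kit, and the GSH:GSSG ratio was calculated. Mean of five technical replicate plates.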

U-2 OS [2] = test: cell viability (CellTiter-Glo) relative to DMSO (% of control); higher = more viable; conditions: 24 h
Experimental: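 Cell viability of U-2 OS cells by CellTiter-Glo after 24 h compound treatment at 5, 10 and 20 uM (some at 40 and 80 uM), measured in parallel with the glutathione assay, as percent of DMSO control. Five technical replicate plates, averaged.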

U-2 OS [3] = test: total intracellular glutathione (GSH + GSSG) relative to DMSO (% of control); higher = more glutathione; conditions: 24 h
Experimental: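 Total intracellular glutathione (GSH + GSSG) in U-2 OS cells by GSH/GSSG-Glo after 24 h compound treatment at 5, 10 and 20 uM (some at 40 and 80 uM), as percent of DMSO control. Five technical replicate plates, averaged.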

U-2 OS [4] = test: cell painting activity score (Mahalanobis distance from DMSO wells); higher = stronger morphological phenotype; conditions: 24 h
How it was run: (§1)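 Cell painting used U-2 OS cells at about 1,500 per well in 384-well plates, treated by pin tool for 24 h at 37 °C, usually at six 2-fold concentrations from 20 μM to 625 nM. Cells were stained with MitoTracker, concanavalin A, phalloidin, wheat germ agglutinin, Hoechst and SYTO 14 and imaged on an Opera Phenix. Features were extracted with CellProfiler and normalized to DMSO cells on the same plate. The activity score is the Mahalanobis distance from DMSO wells; cell count is relative to DMSO wells. Values are means of four replicate plates.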

U-2 OS [5] = test: relative cell count vs DMSO (cell painting) (fraction of DMSO control); higher = more cells remaining (less cytotoxic); conditions: 24 h
How it was run: as §1

U-2 OS [6] = test: AUC of culture confluence over time (live-cell imaging) (AUC (confluence % x time)); higher = more confluent culture (less growth inhibition)
How it was run: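 Live-cell imaging tracked confluence of U-2 OS cells grown in F-12K medium plus 10% FBS. After seeding at 750 cells per well in 384-well plates, cells received compounds by pin tool 24 h later, mostly at 20, 10 and 5 μM, with 0.2% DMSO. Plates stayed at 37 °C and were imaged every 4 h for up to 60 h. Each value is the area under the confluence-versus-time curve.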

Compound	intracellular GSH:GSSG ratio (U-2 OS [1]; 5 µM)	intracellular GSH:GSSG ratio (U-2 OS [1]; 10 µM)	intracellular GSH:GSSG ratio (U-2 OS [1]; 20 µM)	cell viability (U-2 OS [2]; 5 µM)	cell viability (U-2 OS [2]; 10 µM)	cell viability (U-2 OS [2]; 20 µM)	total intracellular glutathione (U-2 OS [3]; 5 µM)	total intracellular glutathione (U-2 OS [3]; 10 µM)	total intracellular glutathione (U-2 OS [3]; 20 µM)	cell painting activity score (U-2 OS [4]; 0.625 µM)	cell painting activity score (U-2 OS [4]; 1.25 µM)	cell painting activity score (U-2 OS [4]; 2.5 µM)	cell painting activity score (U-2 OS [4]; 5 µM)	cell painting activity score (U-2 OS [4]; 10 µM)	cell painting activity score (U-2 OS [4]; 20 µM)	relative cell count (U-2 OS [5]; 0.625 µM)	relative cell count (U-2 OS [5]; 1.25 µM)	relative cell count (U-2 OS [5]; 2.5 µM)	relative cell count (U-2 OS [5]; 5 µM)	relative cell count (U-2 OS [5]; 10 µM)	relative cell count (U-2 OS [5]; 20 µM)	AUC of culture confluence over time (U-2 OS [6]; 5 µM)	AUC of culture confluence over time (U-2 OS [6]; 10 µM)	AUC of culture confluence over time (U-2 OS [6]; 20 µM)	intracellular GSH:GSSG ratio (U-2 OS [1]; 40 µM)	intracellular GSH:GSSG ratio (U-2 OS [1]; 80 µM)	cell viability (U-2 OS [2]; 40 µM)	cell viability (U-2 OS [2]; 80 µM)	total intracellular glutathione (U-2 OS [3]; 40 µM)	total intracellular glutathione (U-2 OS [3]; 80 µM)	cell painting activity score (U-2 OS [4]; 40 µM)	cell painting activity score (U-2 OS [4]; 80 µM)	relative cell count (U-2 OS [5]; 40 µM)	relative cell count (U-2 OS [5]; 80 µM)	AUC of culture confluence over time (U-2 OS [6]; 40 µM)	AUC of culture confluence over time (U-2 OS [6]; 80 µM)	AUC of culture confluence over time (U-2 OS [6]; 0.625 µM)	AUC of culture confluence over time (U-2 OS [6]; 1.25 µM)	AUC of culture confluence over time (U-2 OS [6]; 2.5 µM)
CO[C@H]1C[C@@H]2CC[C@@H](C)[C@@](O)(O2)C(=O)C(=O)N2CCCC[C@H]2C(=O)O[C@H]([C@H](C)C[C@@H]2CC[C@@H](O)[C@H](OC)C2)CC(=O)[C@H](C)/C=C(\C)[C@@H](O)[C@@H](OC)C(=O)[C@H](C)C[C@H](C)/C=C/C=C/C=C/1C	25.7	24.7	24.9	87.3 ± 5	90.6 ± 2.9	80 ± 6.5	90.5 ± 5.3	93.7 ± 5.7	102 ± 7	11.4	12.3	12.1	10.8	12.1	11.9	0.953	0.926	0.903	0.956	0.916	0.852	33.6	34.2	34.8	–	–	–	–	–	–	–	–	–	–	–	–	–	–	–
CC(C)C[C@H](NC(=O)[C@H](Cc1ccccc1)NC(=O)c1cnccn1)B(O)O	2.45	1.97	1.1	6.79 ± 0.82	7.67 ± 1.1	7.65 ± 1	6.2 ± 0.76	6.01 ± 0.4	6.63 ± 0.68	28.4	29.8	29.3	30.7	31	29.8	0.186	0.172	0.149	0.129	0.131	0.125	16.9	15.6	15.1	–	–	–	–	–	–	–	–	–	–	–	–	–	–	–
O=C(NNS(=O)(=O)c1ccccc1F)c1cc(F)cc(-c2ccccn2)c1	21.6	19.3	22.2	97.4 ± 5.8	97.1 ± 5.3	97.2 ± 4.7	101 ± 5.7	103 ± 5.3	104 ± 5.1	4.25	5.31	5.99	9.11	10.5	9.4	1	0.967	0.966	0.955	0.925	0.939	47.7	48.6	51.9	–	–	–	–	–	–	–	–	–	–	–	–	–	–	–
CC(=O)c1c(O)c(C)c(O)c(Cc2c(O)c3c(c(C(=O)C=Cc4ccccc4)c2O)OC(C)(C)C=C3)c1O	25.1	24.3	26.6	98.4 ± 1.9	93.9 ± 3.6	91.9 ± 4.7	95.7 ± 2.9	91.7 ± 4.9	89.9 ± 4.4	4.78	3.41	4.37	3.79	6.83	11.2	1.07	1.12	1.14	1.14	1.11	1.07	39.9	35.4	29	26.7	15	89 ± 4.1	78.4 ± 1.5	83.2 ± 1.9	84.2 ± 4.5	13.1	12.8	0.889	0.727	22.2	18.2	–	–	–
C[C@@H]1C[C@H]2O[C@@H]2/C=C\C=C\C(=O)Cc2c(Cl)c(O)cc(O)c2C(=O)O1	27	7.74	3.63	86.8 ± 3	24.7 ± 2.7	4.77 ± 0.71	87.8 ± 4.1	36 ± 6.1	12.9 ± 0.62	14.6 ± 1.8	14.1 ± 1.8	15.2 ± 1.9	16.2 ± 1.9	16.1 ± 1.1	15.3 ± 0.8	0.852 ± 0.039	0.731 ± 0.047	0.597 ± 0.06	0.466 ± 0.042	0.419 ± 0.033	0.388 ± 0.018	19.9	21.3	20.2	–	–	–	–	–	–	–	–	–	–	–	–	57.8	48.6	46.8
CCCCCCCc1ccc(CCc2cccc(O)c2C(=O)O)cc1	21.3	17.1	15.3	98.6 ± 2.9	98.6 ± 4.4	94.4 ± 4.6	93.7 ± 3.8	93.1 ± 7.4	83.9 ± 4	4.31	3.72	4.79	5.56	4.29	6.6	1.05	1.11	1.12	1.11	1.11	0.741	41.6	34.5	31.5	15.7	11.3	66.6 ± 7.9	17.1 ± 8.5	62.5 ± 9.8	30.7 ± 11	19.1	23.3	0.307	0.365	24.6	17.9	–	–	–
